In publication PMC10888717, “Identification of Novel Non-Nucleoside Inhibitors of Zika Virus NS5 Protein Targeting MTase Activity” (International Journal of Molecular Sciences, 2024):

Experiments:
ZIKV NS5 MTase = biological target: T1, ZIKV NS5 MTase (Zika virus, UniProt A0A024B7W1); experiment: ZIKV NS5 MTase radioactive filter-binding assay (2′-O-MTase activity); format: biochemical; details: at least two experiments, read-out: IC50 (half-maximal inhibitory enzymatic concentration)
T1 construct: KJ776791.2, aa 4–278; His6 (N); made in house; host or cells: Escherichia coli T7 Express Iq
Description: Selected compounds were evaluated in enzymatic inhibition assays against both ZIKV and DENV 2′-O-MTase activity (For details, see Figure S3 in Supplementary Materials). The screening of compounds at a concentration of 50 µM highlighted a higher inhibitory activity against ZIKV MTase. We thus focused our efforts on ZIKV and determined the IC50 values against ZIKV MTase.
Expression and purification of ZIKV NS5 MTase: The coding sequence of the ZIKV NS5 MTase domain (strain H/PF/2013, GenBank accession no. KJ776791.2, aa 4–278) was synthesized by Genscript and cloned into a pQE30 vector (Qiagen, Hilden, Germany) with an N-terminal His6 tag. The protein was expressed and purified following the procedures described in Coutard et al..
Briefly, after expression in Escherichia coli T7 Express Iq (New England BioLabs) in Terrific Broth at 17 °C overnight, bacterial pellets were resuspended in lysis buffer (50 mM Tris-HCl [pH 8], 300 mM NaCl, 5% glycerol, 0.1% Triton, 10 μg/mL DNase I, 2 tablets of EDTA-free antiprotease cocktail [Roche] and 0.25 mg/mL lysozyme). Following cell lysis and clarification, the protein was purified by affinity on immobilized metal affinity chromatography (IMAC, His prep column [GE Healthcare]), followed by size exclusion chromatography (Superdex S75 HR 16/20 column [GE Healthcare]). The NS5-MTase was concentrated and stored at −20 °C after adding glycerol to a final concentration of 40%.
Filter-binding assay: The transfer of tritiated methyl from ^[3H]SAM onto RNA substrate was monitored by a filter-binding assay (FBA), performed according to the method described previously. FBA was carried out in a reaction mixture [40 mM Tris-HCl (pH 8.0), 1 mM DTT, 2 μM SAM, and 0.1 μM 3H-SAM (Perkin Elmer, Shelton, CT, USA)] in the presence of 0.7 μM synthetic ^7mGpppAC4 and ZIKV NS5 MTase (500 nM). The enzyme was first mixed with an increasing concentration of inhibitors, previously suspended in dimethyl sulfoxide (DMSO), before the addition of RNA substrate and SAM, and then incubated at 30 °C. The final DMSO concentration in reactions was 5%. Reaction mixtures were stopped after 30 min incubation by their 10-fold dilution in ice-cold water. Samples were transferred to diethylaminoethyl (DEAE) filtermat (Perkin Elmer, Shelton, CT, USA) using a Filtermat Harvester (Packard Instruments, Meriden, CT, USA). The RNA-retaining mats were washed twice with 10 mM ammonium formate pH 8.0, twice with water, and once with ethanol before drying. They were soaked with scintillation fluid (Perkin Elmer, Shelton, CT, USA), and 3H-methyl transfer to the RNA substrates was determined using a Wallac MicroBeta TriLux Liquid Scintillation Counter (Perkin Elmer, Shelton, CT, USA). For IC50 measurements, values were normalized and fitted with Prism (GraphPad software version 10.1.1) using the following equation: Y = 100/(1 + ((X/IC50) ^ Hillslope)).

[1] = Stability test in human plasma; format: in vitro ADME; details: pH 7.4, 37 °C, up to 24 h, read-out: Plasma Stab. (T1/2, h ± SD) (converted)
Description: Finally, compounds were incubated in human plasma at 37 °C for 24 h. […] Taken together, stability studies confirmed that the series is suitable for further development.
For the ADME property determination, an Agilent 1260 Infinity HPLC-DAD interfaced with an Agilent MSD 6130 (Agilent Technologies, Palo Alto, CA, USA) was used. Chromatographic conditions were optimized using a Phenomenex Kinetex C18-100 Å column (150 × 4.6 mm) with 5 µm particle size and gradient elution with a binary solution (eluent A: H2O; eluent B: ACN; both eluents were acidified with formic acid 0.1% v/v) at room temperature. The LC analyses started with 5% of B (from t = 0 to t = 1 min), then B was increased to 95% (from t = 1 to t = 10 min) and then kept at 95% (from t = 10 to t = 19 min) and finally returned to initial conditions in 1.0 min. The flow rate was 0.6 mL/min and the injection volume was 10 µL.
A stock solution of the target compound in DMSO (2 mM) was incubated in a test tube with pooled human plasma (55.7 mg protein/mL) and HEPES buffer (25 mM, 140 mM NaCl pH 7.4) up to a final volume of 1.0 mL. The mixture was incubated at 37 °C, and at set time points (0.0, 0.5, 1, 4, 8, 24 h), samples of 50 µL were taken, mixed with 400 µL of ACN to stop the reaction of plasmatic esterases, and centrifuged at 5000 rpm for 15 min. The supernatant was removed and analyzed using the LC-UV/MS method previously described. The half-life (t½) was calculated according to the following equation: t½=ln 2/k where k represents the substrate elimination constant. For each compound, the determination was performed in three independent experiments.

T1 sequence (A0A024B7W1 2524-2798): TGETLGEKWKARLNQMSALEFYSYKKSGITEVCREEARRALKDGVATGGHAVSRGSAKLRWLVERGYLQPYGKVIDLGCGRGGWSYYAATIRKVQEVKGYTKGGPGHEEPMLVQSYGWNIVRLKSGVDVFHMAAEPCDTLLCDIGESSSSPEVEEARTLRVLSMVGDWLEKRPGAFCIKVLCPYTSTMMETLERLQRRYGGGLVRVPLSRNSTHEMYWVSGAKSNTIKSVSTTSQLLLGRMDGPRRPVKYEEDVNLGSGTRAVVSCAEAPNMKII

Compound `CN1C(=O)c2ccc(NC(=O)c3cc4cccc(Cl)c4s3)cc2C1=O` [Compound 17] has an IC50 (ZIKV NS5 MTase) of 11.4 µM and a half-life [1] of over 24 h.
